In ChEMBL document CHEMBL1201862, “PubChem BioAssay data set” (2004):
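Test compounds were applied to cells in 96-well plates for 48 hours at 5 doses. At the GI50, growth is halved.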 Calls of active or inactive are those of the source. Cut-off read from the data, not from the text of the source: active = GI50 up to about 1.1 µM and inactive = higher.

Columns and labels:
Assay in all cases: NCI tumour cell line growth inhibition, 48 h
HT-29 = system: HT-29
RPMI-8226 = system: RPMI-8226
ACHN = system: ACHN
Malme-3M = system: Malme-3M
SK-MEL-28 = system: SK-MEL-28
SF-539 = system: SF-539
SNB-19 = system: SNB-19
UACC-62 = system: UACC-62
DMS-114 = system: DMS-114
COLO 205 = system: COLO 205
KM12 = system: KM12
NCI-H522 = system: NCI-H522
SR = system: SR
OVCAR-4 = system: OVCAR-4
K562 = system: K562
MOLT-4 = system: MOLT-4
HOP-92 = system: HOP-92
UO-31 = system: UO-31
NCI-H23 = system: NCI-H23
IGROV-1 = system: IGROV-1
M14 = system: M14
OVCAR-3 = system: OVCAR-3
U-251 = system: U-251
SNB-75 = system: SNB-75
HCT-116 = system: HCT-116
SK-MEL-2 = system: SK-MEL-2
HOP-62 = system: HOP-62
UACC-257 = system: UACC-257
SK-OV-3 = system: SK-OV-3
RXF 393 = system: RXF 393
KM-20L2 = system: KM-20L2
HL-60 = system: HL-60
SF-295 = system: SF-295
SNB-78 = system: SNB-78
M19-MEL = system: M19-MEL
NCI-H460 = system: NCI-H460
CCRF-CEM = system: CCRF-CEM
OVCAR-5 = system: OVCAR-5
LXFL 529 = system: LXFL 529
SF-268 = system: SF-268

Measured: GI50

CC1=C(C2=C(C)C(=O)c3c(c(C=O)c(O)c(O)c3C(C)C)C2=O)C(=O)c2c(C=O)c(O)c(O)c(C(C)C)c2C1=O [GOSSYPOLONE]
inactive: HT-29 2190 nM | RPMI-8226 2290 nM | ACHN 2960 nM | Malme-3M 4330 nM | SK-MEL-28 4800 nM | SF-539 2690 nM | SNB-19 4440 nM | UACC-62 2770 nM | DMS-114 2230 nM | COLO 205 3180 nM | KM12 2240 nM | NCI-H522 4670 nM | SR 3970 nM | OVCAR-4 3050 nM | K562 2950 nM | MOLT-4 2740 nM | HOP-92 2530 nM | UO-31 2170 nM | NCI-H23 3720 nM | IGROV-1 2690 nM | M14 1960 nM | OVCAR-3 2310 nM | U-251 2640 nM | SNB-75 6590 nM | HCT-116 2360 nM | SK-MEL-2 1750 nM | HOP-62 3640 nM | UACC-257 3990 nM | SK-OV-3 3210 nM | RXF 393 2340 nM | KM-20L2 2210 nM | HL-60 2990 nM | SF-295 1930 nM | SNB-78 2200 nM | M19-MEL 4320 nM | NCI-H460 2980 nM | CCRF-CEM 1820 nM | OVCAR-5 1890 nM | LXFL 529 3400 nM | SF-268 2720 nM
